Key:
CDK7 = biological target: T1, CDK7 (Homo sapiens, UniProt P50613); assay: CDK7 kinase activity, Adapta kinase assay (Life Technologies); format: biochemical; conditions: Adapta kinase assay at Life Technologies; 10 μM down to 0.514 nM, 3-fold serial dilutions; read-out: CDK7 Inhibition (IC50)
T1 construct: purchased Life Technologies (Adapta kinase assay service)
How it was run: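 Adapta kinase activity assay run as a commercial service; substrates not specified here. Compounds tested in 3-fold serial dilutions from 10 μM down to 0.514 nM.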

[1] = biological target: CDK7/Cyclin H/MAT1 trimeric complex (Homo sapiens, UniProt P50613); assay: CDK7 kinase assay, Caliper/LabChip EZ Reader (Biortus Biosciences); format: biochemical; conditions: CDK7/Cyclin H/MAT1 10 nM, ATP 2 mM, FAM-CDK7tide 2 μM, 30 min incubation, read-out: CDK7 Inhibition (IC50)
CDK7/Cyclin H/MAT1 trimeric complex, sequence (P50613 whole entry): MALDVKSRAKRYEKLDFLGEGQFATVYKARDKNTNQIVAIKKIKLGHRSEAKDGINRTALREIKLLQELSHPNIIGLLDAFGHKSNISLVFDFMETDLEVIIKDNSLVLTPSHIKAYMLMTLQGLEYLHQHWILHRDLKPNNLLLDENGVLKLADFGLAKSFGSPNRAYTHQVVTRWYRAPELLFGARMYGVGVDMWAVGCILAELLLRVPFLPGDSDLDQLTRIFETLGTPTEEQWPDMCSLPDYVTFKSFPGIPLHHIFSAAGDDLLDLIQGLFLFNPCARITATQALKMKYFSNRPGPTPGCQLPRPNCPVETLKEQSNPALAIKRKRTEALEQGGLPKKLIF
CDK7/Cyclin H/MAT1 trimeric complex, sequence (P51946 whole entry partner): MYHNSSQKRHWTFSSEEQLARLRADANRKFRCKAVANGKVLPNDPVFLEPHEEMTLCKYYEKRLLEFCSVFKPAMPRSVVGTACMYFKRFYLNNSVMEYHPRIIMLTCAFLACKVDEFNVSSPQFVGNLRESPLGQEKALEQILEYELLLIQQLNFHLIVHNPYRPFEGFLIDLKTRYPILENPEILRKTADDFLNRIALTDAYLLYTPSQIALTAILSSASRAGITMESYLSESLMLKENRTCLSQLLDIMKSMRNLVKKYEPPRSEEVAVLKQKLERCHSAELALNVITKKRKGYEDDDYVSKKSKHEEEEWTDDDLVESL
CDK7/Cyclin H/MAT1 trimeric complex, sequence (P51948 whole entry partner): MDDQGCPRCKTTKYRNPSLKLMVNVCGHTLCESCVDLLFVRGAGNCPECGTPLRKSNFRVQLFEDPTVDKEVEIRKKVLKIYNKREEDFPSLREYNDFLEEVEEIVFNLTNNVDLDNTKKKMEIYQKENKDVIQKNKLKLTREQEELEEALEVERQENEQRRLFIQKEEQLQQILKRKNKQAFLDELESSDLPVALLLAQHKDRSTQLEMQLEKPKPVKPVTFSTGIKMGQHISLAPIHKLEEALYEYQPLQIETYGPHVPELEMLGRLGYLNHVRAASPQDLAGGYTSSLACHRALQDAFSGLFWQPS
Procedure: Compounds of the invention were further assayed for CDK7 activity at Biortus Biosciences (Jiangyin, Jiangsu Province, P.R. of China) using a CDK7 kinase assay developed with a Caliper/LabChip EZ Reader (Perkin Elmer, Waltham, Mass.). […] The incubation period was chosen such that the total fraction of phosphorylated peptide product produced was <20% for the uninhibited kinase.

Jurkat cells = assay: Inhibition of proliferation of Jurkat cells (CellTiter-Glo, 72 hour); format: cell-based, human; conditions: 10 μM to 316 pM
How it was run: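 Human T-cell leukemia Jurkat cells in RPMI 1640 with 10% FBS were exposed 72 h at 37 °C, 5% CO2 to compounds from 10 μM to 316 pM in 0.5-log steps. Anti-proliferative effect measured by CellTiter-Glo; IC50 reported in binned categories.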

A673 cells = assay: Inhibition of proliferation of A673 cells (CyQUANT, 72 hour); format: cell-based, human; conditions: 72 hour proliferation
How it was run: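 Human Ewing's sarcoma A673 cells in DMEM + 10% FBS + 1 mM sodium pyruvate, 37 °C, 5% CO2, exposed to compounds from 4 μM to 126.4 pM (0.5 log dilutions) for 72 h. Proliferation read by CyQUANT; IC50 reported as binned categories.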

T1 sequence (P50613 whole entry): as the sequence (P50613 whole entry) above
T1 sequence (P51946 whole entry partner): as the sequence (P51946 whole entry partner) above
T1 sequence (P51948 whole entry partner): as the sequence (P51948 whole entry partner) above

C=CC(=O)N1CCC[C@H]1C(=O)N[C@H]1CCC[C@@H](Nc2ncc(Cl)c(-c3c[nH]c4ccccc34)n2)C1 [Compound 115, (S)-1-acryloyl-N-((1S,3R)-3-(5-chloro-4-(1H-indol-3-yl)pyrimidin-2-ylamino)cyclohexyl)pyrrolidine-2-carboxamide]
IC50 (CDK7): < 0.1 µM
IC50 [1]: < 0.1 µM
IC50 (Jurkat cells; Homo sapiens): < 0.5 µM
IC50 (A673 cells; Homo sapiens): < 0.5 µM

CN(C)CC=CC(=O)N1CCN(C2CCCC(Nc3ncc(Cl)c(-c4c[nH]c5ccccc45)n3)C2)CC1 (centres unmarked) [Compound 237]
IC50 (CDK7): < 0.1 µM
IC50 [1]: < 0.1 µM
IC50 (Jurkat cells): < 0.5 µM
IC50 (A673 cells): < 0.5 µM

CC1CN(C2CCCC(Nc3ncc(Cl)c(-c4c[nH]c5ccccc45)n3)C2)CCN1C(=O)C=CCN(C)C (centres unmarked) [Compound 230]
IC50 (CDK7): < 0.1 µM
IC50 [1]: < 0.1 µM
IC50 (Jurkat cells): 0.5 to 5 µM
IC50 (A673 cells): < 0.5 µM

CN(C)C/C=C/C(=O)Nc1ccc(C(=O)N[C@H]2CCC[C@@H](Nc3ncc(C#N)c(-c4c[nH]c5ccccc45)n3)C2)nc1 [Compound 110, N-((1S,3R)-3-(5-cyano-4-(1H-indol-3-yl)pyrimidin-2-ylamino)cyclohexyl)-5-((E)-4-(dimethylamino)but-2-enamido)picolinamide]
IC50 (CDK7): < 0.1 µM
IC50 [1]: < 0.1 µM
IC50 (Jurkat cells; Homo sapiens): < 0.5 µM
IC50 (A673 cells; Homo sapiens): < 0.5 µM

C=CC(=O)N1CCC(NC[C@@H]2CCC[C@H](Nc3ncc(Cl)c(-c4c[nH]c5ccccc45)n3)C2)CC1 [Compound 212, 1-[4-[[(1R,3S)-3-[[5-chloro-4-(1H-indol-3-yl)pyrimidin-2-yl]amino]cyclohexyl]methylamino]-1-piperidyl]prop-2-en-1-One]
IC50 (CDK7): < 0.1 µM
IC50 [1]: < 0.1 µM
IC50 (Jurkat cells; Homo sapiens): > 5 µM
IC50 (A673 cells; Homo sapiens): < 0.5 µM

— patent publication US10106526B2, “Inhibitors of cyclin-dependent kinase 7 (CDK7)” (SYROS PHARMACEUTICALS, INC., priority 2014, dated 2018)
